Reference: patent US20150087673A1, “METHODS FOR USING AND BIOMARKERS FOR AMPK-ACTIVATING COMPOUNDS” (RIGEL PHARMACEUTICALS, INC., priority 2013, published 2015)

System: AMPK
Assay: AMPK activation assay (enzyme-linked immunosorbent assay)
Format: cell-based
Method in brief: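 Read-out: immunodetected kinase activation after compound exposure, run with commercial kit reagents.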

| SMILES | EC50 [nM] |
| --- | --- |
| COc1ccc(CN2CCC(NC(=O)c3ccc(C(=O)N4CCC(C(=O)c5ccc(N6CCCC6)cc5)CC4)nc3)CC2)cc1 [Compound 439, N-(1-(4-methoxybenzyl)piperidin-4-yl)-6-(4-(4-(pyrrolidin-1-yl)benzoyl)piperidine-1-carbonyl)nicotinamide] | < 500 |
| O=C(NC1CCN(Cc2cccc(OC(F)(F)F)c2)CC1)c1ccc(C(=O)N2CCC(C(=O)c3ccc(N4CCCC4)cc3)CC2)nc1 [Compound 441, 6-(4-(4-(pyrrolidin-1-yl)benzoyl)piperidine-1-carbonyl)-N-(1-(3-(trifluoromethoxy)benzyl)piperidin-4-yl)nicotinamide] | < 500 |
| N#Cc1ccc(O[C@H]2CC[C@@H](NC(=O)c3ccc(C(=O)N4CCC(C(=O)c5ccc(N6CCCC6)cc5)CC4)nc3)CC2)cc1 [Compound 442, N-((cis)-4-(4-cyanophenoxy)cyclohexyl)-6-(4-(4-(pyrrolidin-1-yl)benzoyl)piperidine-1-carbonyl)nicotinamide] | < 500 |
| COc1ccc(CN2CCC(NC(=O)c3ccc(C(=O)N4CCC(C(=O)c5ccc(N6CCCC6)cc5)CC4)nc3)CC2)cc1F [Compound 443, N-(1-(3-fluoro-4-methoxybenzyl)piperidin-4-yl)-6-(4-(4-(pyrrolidin-1-yl)benzoyl)piperidine-1-carbonyl)nicotinamide] | < 500 |
| O=C(NC1CCN(Cc2ccc(N3CCCC3)cc2)CC1)c1ccc(C(=O)N2CCC(C(=O)c3ccc(N4CCCC4)cc3)CC2)nc1 [Compound 444, 6-(4-(4-(pyrrolidin-1-yl)benzoyl)piperidine-1-carbonyl)-N-(1-(4-(pyrrolidin-1-yl)benzyl)piperidin-4-yl)nicotinamide] | < 500 |
| COc1ccc(C(=O)C2CCN(C(=O)c3ccc(C(=O)NC4CCNCC4)cn3)CC2)cc1 [Compound 445, 6-(4-(4-methoxybenzoyl)piperidine-1-carbonyl)-N-(piperidin-4-yl)nicotinamide] | > 10000 |
| N#Cc1ccc(CN2CCC(NC(=O)c3ccc(C(=O)N4CCC(C(=O)c5ccc(N6CCCC6)cc5)CC4)nc3)CC2)cc1F [Compound 447, N-(1-(4-cyano-3-fluorobenzyl)piperidin-4-yl)-6-(4-(4-(pyrrolidin-1-yl)benzoyl)piperidine-1-carbonyl)nicotinamide] | < 500 |
| N#Cc1ccc(CN2CCC(NC(=O)c3ccc(C(=O)N4CCC(Oc5ccc(NS(=O)(=O)C6CC6)cc5)CC4)nc3)CC2)cc1 [Compound 448, N-(1-(4-cyanobenzyl)piperidin-4-yl)-6-(4-(4-(cyclopropanesulfonamido)phenoxy)piperidine-1-carbonyl)nicotinamide] | 1000 to 5000 |
| O=C(Nc1ccc(Oc2ccc(F)cc2)nc1)c1ccc(C(=O)N2CCC(Oc3ccc(NS(=O)(=O)C4CC4)cc3)CC2)nc1 [Compound 449, 6-(4-(4-(cyclopropanesulfonamido)phenoxy)piperidine-1-carbonyl)-N-(6-(4-fluorophenoxy)pyridin-3-yl)nicotinamide] | 1000 to 5000 |
| N#Cc1ccc(CN2CCC(NC(=O)c3ccc(C(=O)N4CCC(Oc5ccc(S(=O)(=O)C(F)(F)F)cc5)CC4)nc3)CC2)cc1 [Compound 450, N-(1-(4-cyanobenzyl)piperidin-4-yl)-6-(4-(4-(trifluoromethylsulfonyl)phenoxy)piperidine-1-carbonyl)nicotinamide] | < 500 |
| COc1ccc(C(=O)C2CCN(C(=O)c3ccc(C(=O)N[C@@H]4CCN(Cc5ccc(C#N)cc5)C[C@H]4F)cn3)CC2)cc1 [Compound 452, N-((3R,4R)-1-(4-cyanobenzyl)-3-fluoropiperidin-4-yl)-6-(4-(4-methoxybenzoyl)piperidine-1-carbonyl)nicotinamide] | < 500 |
| COc1ccc(C(=O)C2CCN(C(=O)c3ccc(C(=O)N[C@H]4CCN(Cc5ccc(C#N)cc5)C[C@@H]4F)cn3)CC2)cc1 [Compound 453, N-((3S,4S)-1-(4-cyanobenzyl)-3-fluoropiperidin-4-yl)-6-(4-(4-methoxybenzoyl)piperidine-1-carbonyl)nicotinamide] | < 500 |
| N#Cc1ccc(CN2CCC(NC(=O)c3ccc(C(=O)N4CCC(Oc5ccc(C(=O)C6CC6)cc5)CC4)nc3)CC2)cc1 [Compound 456, N-(1-(4-cyanobenzyl)piperidin-4-yl)-6-(4-(4-(cyclopropanecarbonyl)phenoxy)piperidine-1-carbonyl)nicotinamide] | < 500 |
| O=C(Nc1ccc(Oc2ccc(F)cc2)nc1)c1ccc(C(=O)N2CCC(Oc3ccc(C(=O)C4CC4)cc3)CC2)nc1 [Compound 457, 6-(4-(4-(cyclopropanecarbonyl)phenoxy)piperidine-1-carbonyl)-N-(6-(4-fluorophenoxy)pyridin-3-yl)nicotinamide] | < 500 |
| CS(=O)(=O)c1ccc(OC2CCN(C(=O)c3ccc(C(=O)Nc4ccc(Oc5ccc(C#N)cc5)nc4)cn3)CC2)cc1 [Compound 459, N-(6-(4-cyanophenoxy)pyridin-3-yl)-6-(4-(4-(methylsulfonyl)phenoxy)piperidine-1-carbonyl)nicotinamide] | < 500 |
| CC(=O)c1ccc(Oc2ccc(NC(=O)c3ccc(C(=O)N4CCC(C(=O)c5ccc(F)cc5F)CC4)nc3)cn2)cc1 [Compound 464, N-(6-(4-acetylphenoxy)pyridin-3-yl)-6-(4-(2,4-difluorobenzoyl)piperidine-1-carbonyl)nicotinamide] | < 500 |
| COc1ccc(C(=O)C2CCN(C(=O)c3ccc(C(=O)Nc4ccc(Oc5ccc(S(C)(=O)=O)cc5)nc4)cn3)CC2)cc1 [Compound 465, 6-(4-(4-methoxybenzoyl)piperidine-1-carbonyl)-N-(6-(4-(methylsulfonyl)phenoxy)pyridin-3-yl)nicotinamide] | < 500 |
| O=C(NC1CCN(Cc2ccc(OC(F)(F)F)cc2)CC1)c1ccc(C(=O)N2CCC(S(=O)(=O)c3ccc(F)cc3)CC2)nc1 [Compound 470, 6-(4-(4-fluorophenylsulfonyl)piperidine-1-carbonyl)-N-(1-(4-(trifluoromethoxy)benzyl)piperidin-4-yl)nicotinamide] | < 500 |

Now from value to molecule:

| EC50 [nM] | SMILES |
| --- | --- |
| < 500 | CC(=O)c1ccc(OC2CCN(C(=O)c3ccc(C(=O)NC4CCN(Cc5ccc(C#N)cc5)CC4)nn3)CC2)cc1 [Compound 437, 6-(4-(4-acetylphenoxy)piperidine-1-carbonyl)-N-(1-(4-cyanobenzyl)piperidin-4-yl)pyridazine-3-carboxamide] |
| < 500 | O=C(NC1CCN(Cc2ccc(OC(F)(F)F)cc2)CC1)c1ccc(C(=O)N2CCC(Oc3cccc(NC(=O)C4CC4)c3)CC2)nc1 [Compound 438, 6-(4-(3-(cyclopropanecarboxamido)phenoxy)piperidine-1-carbonyl)-N-(1-(4-(trifluoromethoxy)benzyl)piperidin-4-yl)nicotinamide] |
| < 500 | O=C(NC1CCN(Cc2ccc(OC(F)(F)F)cc2)CC1)c1ccc(C(=O)N2CCC(C(=O)c3ccc(N4CCCC4)cc3)CC2)nc1 [Compound 440, 6-(4-(4-(pyrrolidin-1-yl)benzoyl)piperidine-1-carbonyl)-N-(1-(4-(trifluoromethoxy)benzyl)piperidin-4-yl)nicotinamide] |
| < 500 | CC(C)Oc1ccc(CN2CCC(NC(=O)c3ccc(C(=O)N4CCC(C(=O)c5ccc(N6CCCC6)cc5)CC4)nc3)CC2)cc1 [Compound 446, N-(1-(4-isopropoxybenzyl)piperidin-4-yl)-6-(4-(4-(pyrrolidin-1-yl)benzoyl)piperidine-1-carbonyl)nicotinamide] |
| < 500 | O=C(NC1CCN(Cc2ccc(OC(F)(F)F)cc2)CC1)c1ccc(C(=O)N2CCC(Oc3ccc(C(=O)C4CC4)cc3)CC2)nc1 [Compound 455, 6-(4-(4-(cyclopropanecarbonyl)phenoxy)piperidine-1-carbonyl)-N-(1-(4-(trifluoromethoxy)benzyl)piperidin-4-yl)nicotinamide] |
| < 500 | COc1ccc(CN2CCC(NC(=O)c3ccc(C(=O)N4CCC(Oc5ccc(C(=O)C6CC6)cc5)CC4)nc3)CC2)cc1 [Compound 458, 6-(4-(4-(cyclopropanecarbonyl)phenoxy)piperidine-1-carbonyl)-N-(1-(4-methoxybenzyl)piperidin-4-yl)nicotinamide] |
| < 500 | COc1ccc(C(=O)C2CCN(C(=O)c3ccc(C(=O)Nc4ccc(Oc5ccc(C#N)cc5)nc4)cn3)CC2)cc1 [Compound 460, N-(6-(4-cyanophenoxy)pyridin-3-yl)-6-(4-(4-methoxybenzoyl)piperidine-1-carbonyl)nicotinamide] |
| < 500 | COc1ccc(C(=O)C2CCN(C(=O)c3ccc(C(=O)Nc4ccc(Oc5ccc(C(C)=O)cc5)nc4)cn3)CC2)cc1 [Compound 462, N-(6-(4-acetylphenoxy)pyridin-3-yl)-6-(4-(4-methoxybenzoyl)piperidine-1-carbonyl)nicotinamide] |
| < 500 | N#Cc1ccc(Oc2ccc(NC(=O)c3ccc(C(=O)N4CCC(C(=O)c5ccc(F)cc5F)CC4)nc3)cn2)cc1 [Compound 463, N-(6-(4-cyanophenoxy)pyridin-3-yl)-6-(4-(2,4-difluorobenzoyl)piperidine-1-carbonyl)nicotinamide] |
| < 500 | CS(=O)(=O)c1ccc(Oc2ccc(NC(=O)c3ccc(C(=O)N4CCC(C(=O)c5ccc(F)cc5F)CC4)nc3)cn2)cc1 [Compound 466, 6-(4-(2,4-difluorobenzoyl)piperidine-1-carbonyl)-N-(6-(4-(methylsulfonyl)phenoxy)pyridin-3-yl)nicotinamide] |
| 1000 to 5000 | COc1ccc(C(=O)C2CCN(C(=O)c3ccc(C(=O)Nc4ccc(S(=O)(=O)c5ccc(F)cc5)nc4)cn3)CC2)cc1 [Compound 467, N-(6-(4-fluorophenylsulfonyl)pyridin-3-yl)-6-(4-(4-methoxybenzoyl)piperidine-1-carbonyl)nicotinamide] |
| < 500 | COc1ccc(C(=O)C2CCN(C(=O)c3ccc(C(=O)Nc4ccc(Oc5ccc(C#N)cc5)cn4)cn3)CC2)cc1 [Compound 468, N-(5-(4-cyanophenoxy)pyridin-2-yl)-6-(4-(4-methoxybenzoyl)piperidine-1-carbonyl)nicotinamide] |
| < 500 | N#Cc1ccc(Oc2ccc(NC(=O)c3ccc(C(=O)N4CCC(C(=O)c5ccc(F)cc5F)CC4)nc3)nc2)cc1 [Compound 469, N-(5-(4-cyanophenoxy)pyridin-2-yl)-6-(4-(2,4-difluorobenzoyl)piperidine-1-carbonyl)nicotinamide] |
